Source: patent publication US20240400560A1, “BICYCLIC HETEROCYCLIC DERIVATIVE HAVING VIRAL GROWTH INHIBITORY ACTIVITY AND PHARMACEUTICAL COMPOSITION CONTAINING SAME” (Shionogi & Co., Ltd., priority 2021, published 2024)
Read-outs that look alike come from different tables or passages of the source.

Assays:
SARS-CoV-2 = assay: Inhibitory activity of cytopathic effect (CPE) in HEK293T/ACE2-TMPRSS2 cells; type: cell-based; details: Severe acute respiratory syndrome coronavirus 2, HEK-293T, 72 h
SARS-CoV-2 3CL protease = SARS-CoV-2 3CL protease (Severe acute respiratory syndrome coronavirus 2, UniProt P0DTD1); assay: Inhibitory activity test against SARS-CoV-2 3CL proteases; type: biochemical
[1] = HEK293T/ACE2-TMPRSS2 cells, cultured 3 days, CellTiter-Glo 2.0 luminescence, read-out: EC50 (50% SARS-CoV-2 infected cell death inhibitory concentration)
[2] = read-out: IC50 (50% SARS-CoV-2 3CL protease inhibitory concentration)
[3] = 50% SARS-CoV-2 infected cell death inhibitory concentration, HEK293T/ACE2-TMPRSS2 cells, CellTiter-Glo 2.0 after 3 days culture, read-out: EC50
[4] = read-out: EC50 (50% SARS-CoV-2 infected cell death inhibitory concentration)
[5] = IC50 (50% SARS-CoV-2 3CL protease inhibitory concentration)

| SMILES | EC50 (SARS-CoV-2; [1]) | IC50 (SARS-CoV-2 3CL protease; [2]) | EC50 (SARS-CoV-2; [3]) | EC50 (SARS-CoV-2; [4]) | IC50 (SARS-CoV-2 3CL protease; [5]) |
| --- | --- | --- | --- | --- | --- |
| Cn1cnc(Cn2c(=O)c3c4nccnc4c(N4CC[C@@H](O)C4)cc3n(Cc3cc(F)c(F)c(F)c3)c2=O)n1 (racemic) [Compound I-0552] | 100 to 1000 nM | < 100 nM |  |  |  |
| Cn1cnc(Cn2c(=O)c3c4ncn(C)c4c(N4CC[C@@H](F)C4)cc3n(Cc3cc(F)c(F)c(F)c3)c2=O)n1 (racemic) [Compound I-0554] |  | 330 nM | 2750 nM |  |  |
| COc1cc(-c2cc(C3(O)CC3)ccc2Cl)cc2c1c(=O)n(Cc1ncn(C)n1)c(=O)n2Cc1cc(F)c(F)c(F)c1 [Compound I-0546] | < 100 nM | < 100 nM |  |  |  |
| O=c1c2cnc(N3[C@@H]4CC[C@H]3CNC4)cc2n(Cc2cc(F)c(F)c(Cl)c2)c(=O)n1-c1cnc2ccccn12 [Compound I-0547] |  |  |  | < 100 nM | < 100 nM |
| O=c1c2c(F)cc(N3[C@@H]4CC[C@H]3CNC4)cc2n(Cc2cc(F)c(F)c(Cl)c2)c(=O)n1-c1cnc2ccccn12 [Compound I-0548] |  |  |  | < 100 nM | < 100 nM |
| COc1nc2c(=O)n(Cc3ncn(C)n3)c(=O)n(Cc3cc(C#N)ccc3C)c2cc1-c1cc(C#N)ccc1Cl [Compound I-0549] | 100 to 1000 nM | < 100 nM |  |  |  |
| COc1nc2c(=O)n(Cc3ncn(C)n3)c(=O)n(Cc3cc(Cl)cc(Cl)c3)c2cc1-c1cc(C#N)ccc1Cl [Compound I-0550] | < 100 nM | < 100 nM |  |  |  |
| COc1nc2c(=O)n(Cc3ncn(C)n3)c(=O)n(Cc3cc(Cl)c(F)cc3Cl)c2cc1-c1cc(C#N)ccc1Cl [Compound I-0551] | < 100 nM | < 100 nM |  |  |  |
| Cn1cnc(Cn2c(=O)c3c4ncn(C)c4c(-c4cc(C#N)ccc4Cl)cc3n(Cc3cc(F)c(F)c(F)c3)c2=O)n1 [Compound I-0556] |  | 0.94 nM | 376 nM |  |  |
| COc1ccc(Cl)c(-c2cc(OC)c3c(=O)n(Cc4ncn(C)n4)c(=O)n(Cc4cc(F)c(F)c(F)c4)c3c2)c1F [Compound I-0557] | 100 to 1000 nM | < 100 nM |  |  |  |
| Cn1cnc(Cn2c(=O)c3c4c(c(-c5ncc(F)cc5Cl)cc3n(Cc3cc(F)c(F)c(Cl)c3)c2=O)CCO4)n1 [Compound I-0561] | < 100 nM | < 100 nM |  |  |  |
| Cn1cnc(Cn2c(=O)c3c4c(c(-c5cnccc5Cl)cc3n(Cc3cc(F)c(F)c(Cl)c3)c2=O)CCO4)n1 [Compound I-0563] | < 100 nM | < 100 nM |  |  |  |
| Cn1cnc(Cn2c(=O)c3c4c(c(N5CCC(F)(F)CC5)cc3n(Cc3cc(F)c(F)c(F)c3)c2=O)CCO4)n1 [Compound I-0565] | < 100 nM | < 100 nM |  |  |  |
| Cn1cnc(Cn2c(=O)c3c4nccnc4c(N4CC(F)(F)C(F)(F)C4)cc3n(Cc3cc(F)c(F)c(Cl)c3)c2=O)n1 [Compound I-0570] |  | 26 nM | 24.7 nM |  |  |
| Cn1cnc(Cn2c(=O)c3c4nccnc4c(-c4c(F)cc(F)cc4F)cc3n(Cc3cc(F)c(F)c(Cl)c3)c2=O)n1 [Compound I-0571] | < 100 nM | < 100 nM |  |  |  |
| CC(C)=Cc1cc2c(c(=O)n(Cc3ncn(C)n3)c(=O)n2Cc2cc(F)c(F)c(Cl)c2)c2nccnc12 [Compound I-0572] |  | 37 nM | 28.3 nM |  |  |
| Cn1cnc(Cn2c(=O)c3c4nccnc4c(N4CC(F)C4)cc3n(Cc3cc(F)c(F)c(Cl)c3)c2=O)n1 [Compound I-0573] | < 100 nM | < 100 nM |  |  |  |
| CC(C)Nc1cc2c(c(=O)n(Cc3ncn(C)n3)c(=O)n2Cc2cc(F)c(F)c(Cl)c2)c2nccnc12 [Compound I-0575] | < 100 nM | < 100 nM |  |  |  |
| COc1nc2c(=O)n(Cc3ncn(C)n3)c(=O)n(Cc3cc(F)c(F)c(Cl)c3)c2cc1-c1ncc(F)cc1Cl [Compound I-0578] | < 100 nM | < 100 nM |  |  |  |
| COc1nc2c(=O)n(Cc3ncn(C)n3)c(=O)n(Cc3cc(F)c(F)c(Cl)c3)c2cc1-c1nc(C)ccc1Cl [Compound I-0579] |  | 5.8 nM | 12.1 nM |  |  |
| COc1nc2c(=O)n(Cc3ncn(C)n3)c(=O)n(Cc3cc(Cl)c(F)cc3C)c2cc1-c1ncc(F)cc1Cl [Compound I-0580] | < 100 nM | < 100 nM |  |  |  |
| COc1nc2c(=O)n(Cc3ncn(C)n3)c(=O)n(Cc3cc(Cl)c(F)cc3C)c2cc1-c1nc(C)ccc1Cl [Compound I-0581] | < 100 nM | < 100 nM |  |  |  |

| SMILES | EC50 (SARS-CoV-2; [1]) | IC50 (SARS-CoV-2 3CL protease; [2]) | EC50 (SARS-CoV-2; [3]) | EC50 (SARS-CoV-2; [4]) | IC50 (SARS-CoV-2 3CL protease; [5]) |
| --- | --- | --- | --- | --- | --- |
| Cn1cnc(Cn2c(=O)c3c4nccnc4c(NC4CC5CC5C4)cc3n(Cc3cc(F)c(F)c(Cl)c3)c2=O)n1 (centres unmarked) [Compound I-0586] | < 100 nM | < 100 nM |  |  |  |
| COc1cc(-c2cc(C#N)ccc2Cl)cc2c1c(=O)n(Cc1ncn(C)n1)c(=O)n2[C@H](C)c1cc(F)c(F)c(F)c1 [Compound I-0595] | < 100 nM | < 100 nM |  |  |  |
| COc1nc(N2CC[C@@H](C#N)C2)cc2c1c(=O)n(Cc1ncn(C)n1)c(=O)n2Cc1cc(F)c(F)c(F)c1 [Compound I-0598] |  | 18 nM | 13.6 nM |  |  |
| COc1nc(N2[C@H]3CC[C@@H]2[C@@H](O)C3)cc2c1c(=O)n(Cc1ncn(C)n1)c(=O)n2Cc1cc(F)c(F)c(F)c1 [Compound I-0602] |  |  |  | < 100 nM | < 100 nM |
| COc1nc(N2C3CCC(O)C2CC3)cc2c1c(=O)n(Cc1ncn(C)n1)c(=O)n2Cc1cc(F)c(F)c(F)c1 (centres unmarked) [Compound I-0610] |  |  |  | < 100 nM | < 100 nM |
| O=c1[nH]c(N2CCC[C@@H]2CO)cc2c1c(=O)n(-c1cnc3ccccn13)c(=O)n2Cc1cc(F)c(F)c(Cl)c1 [Compound I-0623] | < 100 nM | < 100 nM |  |  |  |
| COc1nc(N2CC[C@@H](C(=O)O)C2)cc2c1c(=O)n(-c1cnc3cc(F)ccn13)c(=O)n2-c1ccc(F)c(Cl)c1 [Compound I-0625] | 100 to 1000 nM | < 100 nM |  |  |  |
| CCNC(=O)[C@@H]1CCN(c2cc3c(c(OC)n2)c(=O)n(-c2cnc4cc(F)ccn24)c(=O)n3-c2ccc(F)c(Cl)c2)C1 [Compound I-0626] |  | 14 nM | 55.2 nM |  |  |
| COc1nc(N2CC[C@@H](C(=O)N3CCOCC3)C2)cc2c1c(=O)n(-c1cnc3cc(F)ccn13)c(=O)n2-c1ccc(F)c(Cl)c1 [Compound I-0627] | < 100 nM | < 100 nM |  |  |  |
| O=c1c2c(=O)n(-c3cnc4cc(F)ccn34)c(=O)n(-c3ccc(F)c(Cl)c3)c2cc2n1C[C@@H]1CCCN21 [Compound I-0628] |  | 26 nM | 661 nM |  |  |
| Cn1cnc(Cn2c(=O)c3c4ncccc4c(-c4cc(C#N)ccc4Cl)cc3n(Cc3cc(F)c(F)c(F)c3)c2=O)n1 [Compound I-0632] |  | 3.1 nM | 50.1 nM |  |  |
| Cc1c(-c2cc(C#N)ccc2Cl)cc2c(c1F)c(=O)n(Cc1ncn(C)n1)c(=O)n2Cc1cc(F)c(F)c(Cl)c1 [Compound I-0637] | < 100 nM | < 100 nM |  |  |  |
| Cn1cnc(Cn2c(=O)c3c(F)c(C4CC4)c(-c4cc(C#N)ccc4Cl)cc3n(Cc3cc(F)c(F)c(Cl)c3)c2=O)n1 [Compound I-0638] | < 100 nM | < 100 nM |  |  |  |
| Cn1cnc(Cn2c(=O)c3c(cc(-c4cc(C#N)ccc4Cl)n4nnnc34)n(Cc3cc(F)c(F)c(F)c3)c2=O)n1 [Compound I-0639] | 100 to 1000 nM | < 100 nM |  |  |  |
| Cn1cnc(Cn2c(=O)c3c(cc(-c4cc(C#N)ccc4Cl)n4ccnc34)n(Cc3cc(F)c(F)c(F)c3)c2=O)n1 [Compound I-0642] |  | 3 nM | 640 nM |  |  |
| Cc1cnc2c3c(=O)n(Cc4ncn(C)n4)c(=O)n(Cc4cc(F)c(F)c(F)c4)c3cc(-c3cc(C#N)ccc3Cl)n12 [Compound I-0643] |  | 4.3 nM | 520 nM |  |  |
| Cn1cnc(Cn2c(=O)c3c(cc(-c4cc(C#N)ccc4Cl)n4ncnc34)n(Cc3cc(F)c(F)c(F)c3)c2=O)n1 [Compound I-0645] | 100 to 1000 nM | 100 to 1000 nM |  |  |  |
| COc1nc(N2[C@@H]3CC[C@H]2CNC3)cc2c1c(=O)n(-c1cnc3ccccn13)c(=O)n2Cc1cc(F)c(F)c(F)c1 [Compound I-0646] |  |  |  | < 100 nM | < 100 nM |
| Cn1cnc(Cn2c(=O)c3c(cc(-c4cc(C#N)ccc4Cl)n4c(=O)[nH]nc34)n(Cc3cc(F)c(F)c(F)c3)c2=O)n1 [Compound I-0647] |  | 5.7 nM | 13900 nM |  |  |
| COc1nc(N2[C@@H]3CCC[C@H]2CNC3)cc2c1c(=O)n(-c1cnc3ccccn13)c(=O)n2Cc1cc(F)c(F)c(Cl)c1 [Compound I-0648] |  |  |  | < 100 nM | < 100 nM |
| COc1nc(N2[C@@H]3CC[C@H]2CNC3)cc2c1c(=O)n(-c1cnc3ccc(Cl)cn13)c(=O)n2Cc1cc(Cl)ccc1Cl [Compound I-0649] |  |  |  | < 100 nM | < 100 nM |
